{
  "source": "patent US20240238417A1",
  "about": "“METHODS OF PRODUCING TUMOR VACCINES AND USES THEREOF” (priority 2021, published 2024)",
  "key": {"Panc02.03 cells": {"tested_on": "Panc02.03 cells", "assay": "XTT viability of Panc02.03 cells after gas exposure in chamber", "type": "cell-based", "conditions": "10,000 ppm-25,000 ppm gNO for 1-15 minutes", "description": "(§1) Tumor celllines: The mouse colon carcinoma cell line, CT26WT, was cloned from CT26, an N-nitroso-N-methylurethane-induced, undifferentiated colon carcinoma cell line. The mouse mammary tumor cell line, 4T1, is a 6-thioguanine resistant cell line. When injected into BALB/c mice, 4T1 spontaneously produces highly metastatic tumors that can metastasize to the lung, liver, lymph nodes and brain while the primary tumor is growing in situ. […] Panc 02.03 is a pancreatic adenocarcinoma epithelial cell line derived in 1995 from a primary tumor removed from the head-of-the-pancreas of […] with pancreatic adenocarcinoma. CT26, 4T1 and Panc 02.03 cell lines were grown in RPMI based media (ATCC 30-2001) supplemented with fetal bovine serum and pen-strep (both from Biological Industries). The LLC1/LU2 cell line was grown in DMEM based media (ATCC 30-2002) supplemented with fetal bovine serum and pen-strep (Biological industries). The B16.F10 cell lines was grown in DMEM based media (ATCC 30-2002) supplemented with fetal bovine serum and pen-strep (Biologicalindustries).\n(§2) In vitro systems: One system involves a direct exposure of cancer cells to gNO in 96-well plate. Gaseous NO at 150 ppm-50,000 ppm was delivered at 0.3 LPM for 10 seconds—3 minutes. In another system, cancer cells were exposed to gNO in a box made of acrylic glass. […]"}, "[1]": {"assay": "pH of cell suspension after ex-vivo gNO treatment of tumor cells", "type": "physicochemical", "conditions": "ex-vivo treatment of tumor cells with gNO"}, "CT-26 cells": {"tested_on": "CT-26 cells", "assay": "XTT viability of CT-26 cells after direct gas exposure in 96-well plate", "type": "cell-based", "conditions": "Mus musculus, CT26; 50,000 ppm gNO for 10, 60, or 180 seconds; XTT after 24 hours", "description": "as §1, §2"}, "A549 cells": {"tested_on": "A549 cells", "assay": "XTT viability of A549 cells after direct gas exposure in 96-well plate", "type": "cell-based", "experimental": "In vitro systems: One system involves a direct exposure of cancer cells to gNO in 96-well plate. Gaseous NO at 150 ppm-50,000 ppm was delivered at 0.3 LPM for 10 seconds—3 minutes. In another system, cancer cells were exposed to gNO in a box made of acrylic glass. Gaseous NO at 10,000-50,000 ppm was delivered at 0.9 LPM for 10 seconds—15 minutes.\nThe exposure of the cancer cells to gNO was done after removing the cell culture medium.\nImmediately after gas exposure, cell culture medium was added, and the cells were incubated at a 37° C. and 5% CO2 incubator over-night. To test cell viability, XTT assay and Annexin V-Propidium Iodide assays were performed, according to known protocols.\nA549 cells were prepared in RPMI medium and suspended in four 96-well plates. The wells were exposed to the gas by a tubing that was directed at each well for 10, 60 or 180 seconds. The diameter of the gas tubing used was about 25% of the diameter of each well. Three wells were used for each gas and exposure time. The plates were placed in a 5% CO2, 37° C. incubator for 15-18 hours and the viability of the cells was tested by XTT assay."}, "4T1 challenge tumor": {"tested_on": "4T1 challenge tumor", "assay": "Challenge assay in 4T1 tumor-bearing mice", "type": "in vivo", "conditions": "50,000 ppm gNO intra-tumorally for 10 minutes", "experimental": "Challenge tumor inoculation: Up to 21 days after gas treatment was applied to the primary tumor, the appropriate cancer cell suspensions were prepared as described herein and inoculation of cells was repeated on the contralateral flank of the mice. Administration was performed as soon as possible following cell suspension preparation and after manual shaking prior to withdrawal of the cell suspension.\nThe percentage of challenge tumor take was monitored 2-3 times a week by taking a look at the inoculated site and touching this area to look for small tumors that are not yet visible. Naïve mice inoculated with tumor cells for the first time served as an internal control.\nIn another challenge assay, 4T1 tumor-bearing mice were treated with 50,000 ppm gNO administered intra-tumorally by a 23G hypodermic needle for 10 minutes, and the effect of a local treatment with gNO on the primary tumor as compared to nitrogen was tested, as depicted in FIG. 16A. Fourteen days post gNO treatment, mice were re-inoculated with 10×10^5 4T1 cells subcutaneously (s.c.) (challenge assay). The percentage of tumor take was monitored by caliper measurements 2-3 times a week for 10 days. Naïve mice, inoculated with 4T1 for the first time, served as the control group. […]"}, "CT26 challenge tumor": {"tested_on": "CT26 challenge tumor", "assay": "gNO, tumor excision and CT26 re-challenge: tumor take and survival", "type": "in vivo, mice", "conditions": "about 75 days", "experimental": "CT26 tumor-bearing male mice were treated with 20,000 ppm and 50,000 ppm gNO intra-tumorally for 5 minutes. Fourteen days post gNO treatment, all tumors were excised. A week post surgery, all mice were re-challenged via a second inoculation of 5×10^5 CT26 cells, and tumor take and survival were monitored during about 75 days, as depicted in FIG. 21A."}},
  "data": [
    {"smiles": "[N]=O", "note": "[gNO, nitric oxide]", "values": [
      {"measurement": "viability of Panc02.03 cells", "setting": "Panc02.03 cells", "result": "less than 5%"},
      {"measurement": "pH of cell suspension comprising gNO-treated tumor cells", "setting": "[1]", "result": "acidic pH"},
      {"measurement": "viability at 50000 ppm", "setting": "CT-26 cells", "result": "~1", "unit": "%"},
      {"measurement": "viability of A549 cells", "setting": "A549 cells; 4000, 10,000, or 50,000 ppm gNO for 10 seconds", "result": "50%-84%"},
      {"measurement": "viability of A549 cells", "setting": "A549 cells; 4000, 10,000, or 50,000 ppm gNO for 60 seconds", "result": "65%-96%"},
      {"measurement": "viability of A549 cells", "setting": "A549 cells; 4000, 10,000, or 50,000 ppm gNO for 180 seconds", "result": "45%-62%"},
      {"measurement": "development of a secondary (challenge) 4T1 tumor", "setting": "4T1 challenge tumor; 5 days post challenge tumor inoculation", "result": "have not developed a secondary tumor"},
      {"measurement": "challenge tumor take compared to non-treated and nitrogen-treated mice", "setting": "4T1 challenge tumor; 10 days post re-inoculation", "result": "a delay in the challenge tumor take was achieved"},
      {"measurement": "challenge tumor development", "setting": "CT26 challenge tumor; 20,000 ppm and 50,000 ppm gNO 5 minutes, excision day 14, re-challenge a week post surgery", "result": "no tumor development"},
      {"measurement": "survival", "setting": "CT26 challenge tumor; 50,000 ppm gNO 5 minutes, excision, re-challenge", "result": 100, "unit": "%"}
    ]}
  ]
}
